Results taken from PubChem BioAssay (NCI).
Values joined by “and” are separate entries in the source; they are usually repeats but may differ in a detail not shown here. Equal entries are not always repeated.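 Cultured in 96-well plates, cells were exposed to test compound for 48 hours across five concentrations. GI50 marks 50% less growth. TGI: concentration producing complete growth inhibition.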

Key:
Experiment in all cases: inhibition of tumour cell growth, NCI panel, 48 h
MOLT-4 leukemia = system: MOLT-4 leukemia
HOP-92 NSCLC = system: HOP-92 NSCLC
NCI/ADR-RES ovarian = system: NCI/ADR-RES ovarian
SNB-75 CNS = system: SNB-75 CNS
OVCAR-8 ovarian = system: OVCAR-8 ovarian
SNB-19 CNS = system: SNB-19 CNS
HL-60(TB) leukemia = system: HL-60(TB) leukemia
HT29 colon = system: HT29 colon
HOP-62 NSCLC = system: HOP-62 NSCLC
EKVX NSCLC = system: EKVX NSCLC

Row | SMILES | GI50 (MOLT-4 leukemia) | TGI (MOLT-4 leukemia) | GI50 (HOP-92 NSCLC) | TGI (HOP-92 NSCLC) | GI50 (NCI/ADR-RES ovarian) | TGI (NCI/ADR-RES ovarian) | GI50 (SNB-75 CNS) | TGI (SNB-75 CNS) | GI50 (OVCAR-8 ovarian) | TGI (OVCAR-8 ovarian) | GI50 (SNB-19 CNS) | TGI (SNB-19 CNS) | GI50 (HL-60(TB) leukemia) | TGI (HL-60(TB) leukemia) | GI50 (HT29 colon) | TGI (HT29 colon) | GI50 (HOP-62 NSCLC) | TGI (HOP-62 NSCLC) | GI50 (EKVX NSCLC) | TGI (EKVX NSCLC)
1 | CCS(=O)(=O)c1ccc(OC)c(Nc2ncc(-c3cccc(-c4ccccc4F)c3)o2)c1 | > 25 µM | > 25 µM | 3.16 µM | 20.7 µM | 15.4 µM | > 25 µM | 4.77 µM | 24.3 µM | > 25 µM | > 25 µM | > 17.2 µM | > 25 µM | > 25 µM | > 25 µM | 15 µM | > 25 µM | > 19.9 µM | > 25 µM | 7.89 µM | > 25 µM
2 | O=C(/C=C\c1cccc([N+](=O)[O-])c1)c1ccccc1 | 3.19 µM | > 100 µM | 2.04 µM | 5.12 µM | 5.48 µM | 30.1 µM | 9.82 µM | 30.5 µM | 3.66 µM | 17 µM | 6.81 µM | 21 µM | 2.91 µM | > 100 µM | 2.77 µM | > 100 µM | 19.5 µM | 46.6 µM | 13.1 µM | 29.1 µM
3 | O=C1C(CN(Cc2ccccc2)Cc2ccccc2)CCCC1CN(Cc1ccccc1)Cc1ccccc1 (centres undefined) | – | > 100 µM | – | > 52.1 µM and 82.5 µM | – | > 100 µM | 31.1 µM and 76.2 µM | 49.1 µM and > 100 µM | 22.9 µM and > 95.5 µM | 43.1 µM and > 100 µM | – | > 100 µM | – | 12 µM and > 100 µM | 25.7 µM and 59.3 µM | 47.1 µM and > 100 µM | – | > 100 µM | 36.8 µM and > 100 µM | 59.9 µM and > 100 µM
4 | CC(C)[C@@H]1NC(=O)[C@]2(C)CSC(=N2)c2csc(n2)CNC(=O)C[C@@H](/C=C/CCS)OC1=O | 0.171 µM | > 100 µM | 0.137 µM | 0.677 µM | 2.67 µM | > 100 µM | 0.0686 µM | > 100 µM | 0.0858 µM | > 100 µM | 0.168 µM | > 44.3 µM | 0.361 µM | > 100 µM | 0.183 µM | > 100 µM | 0.0453 µM | > 29.1 µM | 0.198 µM | > 100 µM
5 | COc1ccc(C2=C(Br)C(=O)OC2)cc1Cl | 29.5 µM | > 100 µM | 45.2 µM | > 100 µM | 29.4 µM | > 79.2 µM | 55.8 µM | > 100 µM | 20.2 µM | > 52.7 µM | 10.6 µM | > 100 µM | 42.8 µM | > 100 µM | 48.4 µM | > 100 µM | 44.4 µM | > 100 µM | 16.7 µM | 71.4 µM
6 | O=C1OCC2=C1C(c1cccc([N+](=O)[O-])c1)c1cc3c(cc1N2CCO)CCC3 (centres undefined) | 0.254 µM | 43.3 µM | 2.66 µM | > 50 µM | 0.146 µM | > 11.3 µM | 0.0513 µM | 0.363 µM | 0.244 µM | > 50 µM | 0.2 µM | > 50 µM | 0.137 µM | 0.373 µM | 0.176 µM | 21.6 µM | 0.199 µM | > 50 µM | 0.28 µM | > 50 µM
7 | O=C(/C=C/c1ccccc1Cl)c1ccc(O)cc1 | 5.64 µM | > 57.6 µM | 6.75 µM | 23.7 µM | 16.4 µM | > 70.6 µM | 10.6 µM | 24.5 µM | 8.3 µM | 26.3 µM | 6.95 µM | 19.6 µM | 3.22 µM | > 23.2 µM | 4.72 µM | 17.4 µM | 20.4 µM | 37.3 µM | 10 µM | 25.8 µM
8 | O=C(Nc1cccnc1)c1cccs1 | 3.19 µM | > 100 µM | > 100 µM | > 100 µM | 43.8 µM | > 100 µM | 4.77 µM | > 100 µM | 8.94 µM | > 100 µM | 9.56 µM | > 100 µM | 48.1 µM | > 100 µM | 2.39 µM | > 100 µM | 42.2 µM | > 100 µM | > 100 µM | > 100 µM
9 | CN(C)c1cc2c(cc1Sc1nc3c(N)nccc3n1CCNCC(C)(C)C)OCO2 | 0.287 µM | 3.54 µM | 0.334 µM | 2.49 µM | 0.731 µM | 24.7 µM | 1.53 µM | 19.1 µM | 0.399 µM | 15.8 µM | 1 µM | 24.2 µM | 0.274 µM | 0.85 µM | 0.285 µM | 11.1 µM | 2.39 µM | 22.1 µM | 1.34 µM | 35.2 µM
10 | Clc1ccc(-c2nc(-c3c[nH]c4ncccc34)cs2)cc1 | > 100 µM | > 100 µM | 0.0277 µM | > 100 µM | > 100 µM | > 100 µM | > 100 µM | > 100 µM | > 100 µM | > 100 µM | > 100 µM | > 100 µM | > 100 µM | > 100 µM | > 100 µM | > 100 µM | > 100 µM | > 100 µM | 0.582 µM | > 100 µM
11 | Cc1oncc1C(=O)Nc1ccc(C(F)(F)F)cc1 | 36.4 µM | > 100 µM | 6.17 µM | 46 µM | 45.1 µM | > 100 µM | 23.5 µM | > 100 µM | 17.6 µM | > 100 µM | > 100 µM | > 100 µM | 24.5 µM | > 100 µM | 66.3 µM | > 100 µM | > 100 µM | > 100 µM | 18.7 µM | > 100 µM
12 | O=C(O[C@H]1CN[C@H](C#Cc2cc3ncnc(Nc4ccc(Cc5ccccc5)cc4)c3s2)C1)N1CCOCC1 | 6.93 µM | > 25 µM | 1.7 µM | 11.5 µM | 5.72 µM | > 23.8 µM | 1.87 µM | > 19.4 µM | 5.33 µM | > 23.4 µM | 7.73 µM | > 25 µM | 5.5 µM | 17.1 µM | 4.71 µM | 10.7 µM | 5.15 µM | > 14.1 µM | 1.94 µM | > 25 µM
13 | NC(=O)Cc1ccccc1Oc1nccc(-c2c(-c3ccc(F)cc3)ncn2C2CCNCC2)n1 | > 25 µM | > 25 µM | > 25 µM | > 25 µM | > 25 µM | > 25 µM | > 19.1 µM | > 25 µM | > 25 µM | > 25 µM | > 25 µM | > 25 µM | > 25 µM | > 25 µM | > 25 µM | > 25 µM | > 25 µM | > 25 µM | > 25 µM | > 25 µM
14 | S=c1cn[nH]c2ccc(Br)cc12 | – | > 100 µM | – | > 100 µM | – | > 100 µM | – | > 100 µM | – | > 100 µM | – | > 100 µM | – | > 100 µM | – | > 100 µM | – | > 100 µM | – | 75.3 µM
15 | Cc1nc(NC(=O)COc2cccc(/C=C3\COc4ccccc4C3=O)c2)sc1C | 3.5 µM | > 100 µM | 1.69 µM | 3.83 µM | 3.12 µM | 9.79 µM | 5.49 µM | 18.7 µM | 2.36 µM | 5.78 µM | 3.38 µM | 13.6 µM | 2.8 µM | > 29.9 µM | 1.89 µM | 4.14 µM | 1.71 µM | 3.37 µM | 1.24 µM | 3.12 µM
16 | O=[N+]([O-])c1ccccc1S(=O)(=O)c1ccccc1[N+](=O)[O-] | – | > 100 µM | – | 91.4 µM | – | > 100 µM | – | 43.1 µM | – | > 56.2 µM | – | > 97.7 µM | – | > 100 µM | – | > 100 µM | – | 87 µM | – | > 56.2 µM
17 | CC(/C=C/C=C/C=C/C=C/C=C/C(O)=C1/C(=O)C(CCC(=O)O)N(C)C1=O)=C\C(C)C(OC1CC(O)C(O)C(C)O1)C(C)C (centres undefined) | – | 7.08 µM | – | 8.66 µM | – | 50.2 µM | – | 22.8 µM | – | 15.1 µM | – | 9.44 µM | – | 6.07 µM | – | 14 µM | – | 3.68 µM | – | 12.4 µM
18 | COc1ccccc1/C=C1\CCC(CN(C)C)C1=O (centres undefined) | – | 17.5 µM | – | 15.9 µM | – | 90.3 µM | – | 17.8 µM | – | 26.3 µM | – | 26.7 µM | – | 6.68 µM | – | 16.1 µM | – | 36.4 µM | – | 38.9 µM
19 | O=S(=O)(c1ccc2c(c1)C(=NO)c1cc(S(=O)(=O)N3CCCCC3)ccc1-2)N1CCCCC1 | 0.204 µM and 0.215 µM | 0.433 µM and 0.832 µM | > 1 µM and 0.22 µM | > 1 µM and 0.524 µM | > 1 µM and 0.196 µM | > 1 µM and 0.404 µM | 0.147 µM and 0.0587 µM | 0.287 µM and 0.151 µM | 0.306 µM and 0.0904 µM | 0.842 µM and 0.281 µM | 0.303 µM and 0.184 µM | 0.962 µM and 0.326 µM | 0.107 µM and 0.189 µM | 0.326 µM and 0.549 µM | 0.856 µM and 0.194 µM | > 1 µM and 0.4 µM | 0.168 µM and 0.0463 µM | 0.36 µM and 0.105 µM | 0.575 µM and 0.174 µM | > 1 µM and 0.323 µM
